Measurements from US8247351B2, “Insecticidal compositions having improved effect” (Bayer Cropscience AG, priority 2005, dated 2012).

Key:
Assay type in all cases: in vivo
Myzus persicae [1] = experiment: Myzus persicae test, Example D (sprayed to runoff, ammonium salt boosting)
Protocol: (§1) Solvent: 7 parts by weight dimethylformamide
(§2) Emulsifier: 2 parts by weight alkylaryl polyglycol ether
(§3) An appropriate preparation of active ingredient is prepared by mixing 1 part by weight of active ingredient with the stated amounts of solvent and emulsifier and diluting the concentrate with water to the desired concentration. For the application with ammonium salts or phosphonium salts, these salts are added in a concentration of 1000 ppm to the spray liquor.
Paprika plants (Capsicum annum) heavily infested by the green peach aphid (Myzus persicae) are treated by being. sprayed to runoff with the preparation of active ingredient at the desired concentration. After the desired time the destruction in % is ascertained. 100% means that all of the animals have been killed; 0% means that no animals have been killed.

Aphis gossypii [2] = experiment: Aphis gossypii test, Example E (sprayed to runoff, ammonium salt boosting)
Protocol: as §1, §2
as §3, with “concentrate with emulsifier-containing water to” for “concentrate with water to”
(§4) Cotton plants (Gossypium hirsutum) heavily infested by the cotton aphid (Aphis gossypii) are sprayed to runoff with the preparation of active ingredient at the desired concentration.
(§5) After the desired time the destruction in % is ascertained. 100% means that all of the aphids have been killed; 0% means than no aphids were killed.

Myzus persicae [3] = experiment: Myzus persicae test, Example F (sprayed to runoff, ammonium salt plus penetrant)
Protocol: as §1, §2
An appropriate preparation of active ingredient is prepared by mixing 1 part by weight of active ingredient with the stated amounts of solvent and emulsifier and diluting the concentrate with water to the desired concentration. For the application with ammonium salts or phosphonium salts and penetrant (rapeseed oil methyl ester 500 EW), they are each added in a concentration of 1000 ppm to the spray liquor.
After the desired time the destruction in % is ascertained. 100% means that all of the animals have been killed; 0% means that no animals have been killed.

Aphis gossypii [4] = experiment: Aphis gossypii test, Example G (sprayed to runoff, ammonium salt plus penetrant)
Protocol: as §1, §2
An appropriate preparation of active ingredient is prepared by mixing 1 part by weight of active ingredient with the stated amounts of solvent and emulsifier and diluting the concentrate with emulsifier-containing water to the desired concentration. For the application with ammonium salts or phosphonium salts and penetrants (rapeseed oil methyl esters 500 EW), they are each added in a concentration of 1000 ppm a.i. to the spray liquor.
as §4, §5

[5] = 4 ppm active ingredient, +AS (1000 ppm)
[6] = 4 ppm active ingredient, no additive
[7] = 20 ppm active ingredient, +AS (1000 ppm)
[8] = 20 ppm active ingredient, no additive
[9] = 4 ppm active ingredient, +RME (1000 ppm)
[10] = 4 ppm active ingredient, +RME +AS (each 1000 ppm)
[11] = 0.8 ppm active ingredient, +AS (1000 ppm)
[12] = 0.8 ppm active ingredient, no additive
[13] = 0.8 ppm active ingredient, +RME (1000 ppm)
[14] = 0.8 ppm active ingredient, +RME +AS (each 1000 ppm)
[15] = 20 ppm active ingredient, +RME (1000 ppm)
[16] = 20 ppm active ingredient, +RME +AS (each 1000 ppm)

Row | Compound | Degree of destruction/% after 6 days (Aphis gossypii [2]; [5]) [%] | Degree of destruction/% after 6 days (Aphis gossypii [2]; [6]) [%] | Degree of destruction/% after 6 days (Aphis gossypii [2]; [7]) [%] | Degree of destruction/% after 6 days (Aphis gossypii [2]; [8]) [%] | Degree of destruction/% after 6 days (Myzus persicae [3]; [5]) [%] | Degree of destruction/% after 6 days (Myzus persicae [3]; [9]) [%] | Degree of destruction/% after 6 days (Myzus persicae [3]; [10]) [%] | Degree of destruction/% after 6 days (Myzus persicae [3]; [6]) [%] | other results
1 | Cc1ccc(-c2ccc(Cl)cc2)cc1C1=C(O)C(C)(C)NC1=O [Example I-1-a-3] | 35 | 5 | 80 | 20 | 20 | 10 | 90 | 0 | Degree of destruction/% after 6 days (Myzus persicae [1]; [5]): 90%; Degree of destruction/% after 6 days (Myzus persicae [1]; [6]): 0%; Degree of destruction/% after 6 days (Myzus persicae [1]; [7]): 75%; Degree of destruction/% after 6 days (Myzus persicae [1]; [8]): 60%
2 | CO[C@@H]1CCC[C@]2(C1)NC(=O)C(c1c(C)cc(C)cc1C)=C2O [Example I-1-a-6] | 55 | 25 | – | – | – | – | – | – | Degree of destruction/% after 6 days (Aphis gossypii [2]; [11]): 30%; Degree of destruction/% after 6 days (Aphis gossypii [2]; [12]): 15%; Degree of destruction/% after 6 days (Aphis gossypii [4]; [5]): 55%; Degree of destruction/% after 6 days (Aphis gossypii [4]; [9]): 50%; Degree of destruction/% after 6 days (Aphis gossypii [4]; [10]): 80%; Degree of destruction/% after 6 days (Aphis gossypii [4]; [6]): 25%
3 | COC1CCC2(CC1)NC(=O)C(c1c(C)cc(C)c(C)c1C)=C2O (stereo not shown) [Example I-1-a-9] | – | – | – | – | – | – | – | – | Degree of destruction/% after 6 days (Myzus persicae [3]; [11]): 5%; Degree of destruction/% after 6 days (Myzus persicae [3]; [13]): 35%; Degree of destruction/% after 6 days (Myzus persicae [3]; [14]): 75%; Degree of destruction/% after 6 days (Myzus persicae [3]; [12]): 0%
4 | COC1CCC2(CC1)NC(=O)C(c1cc(C)c(Cl)cc1C)=C2O (stereo not shown) [Example I-1-a-10] | 65 | 20 | 75 | 40 | 35 | 75 | 85 | 0 | Degree of destruction/% after 6 days (Myzus persicae [1]; [5]): 35%; Degree of destruction/% after 6 days (Myzus persicae [1]; [6]): 0%; Degree of destruction/% after 6 days (Myzus persicae [1]; [7]): 85%; Degree of destruction/% after 6 days (Myzus persicae [1]; [8]): 40%
5 | CO[C@H]1CC[C@]2(CC1)NC(=O)C(c1cc(C)ccc1C)=C2O [Example I-1-a-13] | – | – | – | – | 0 | 65 | 75 | 0 | Degree of destruction/% after 6 days (Myzus persicae [3]; [11]): 0%; Degree of destruction/% after 6 days (Myzus persicae [3]; [13]): 0%; Degree of destruction/% after 6 days (Myzus persicae [3]; [14]): 30%; Degree of destruction/% after 6 days (Myzus persicae [3]; [12]): 0%
6 | COCC1CCC2(CC1)NC(=O)C(c1c(C)cc(C)cc1C)=C2O (stereo not shown) [Example I-1-a-14] | 90 | 55 | – | – | – | – | – | – | Degree of destruction/% after 6 days (Aphis gossypii [2]; [11]): 40%; Degree of destruction/% after 6 days (Aphis gossypii [2]; [12]): 25%
7 | COCC1CCC2(CC1)NC(=O)C(c1c(C)cc(Cl)cc1C)=C2O (stereo not shown) [Example I-1-a-15] | 75 | 40 | 95 | 80 | – | – | – | – | Degree of destruction/% after 6 days (Myzus persicae [3]; [11]): 0%; Degree of destruction/% after 6 days (Myzus persicae [3]; [13]): 50%; Degree of destruction/% after 6 days (Myzus persicae [3]; [14]): 80%; Degree of destruction/% after 6 days (Myzus persicae [3]; [12]): 15%
8 | COCC1CCC2(CC1)NC(=O)C(c1c(C)cc(Cl)cc1Cl)=C2O (stereo not shown) [Example I-1-a-16] | 75 | 40 | 85 | 75 | – | – | – | – | Degree of destruction/% after 6 days (Aphis gossypii [4]; [7]): 85%; Degree of destruction/% after 6 days (Aphis gossypii [4]; [15]): 95%; Degree of destruction/% after 6 days (Aphis gossypii [4]; [16]): 99%; Degree of destruction/% after 6 days (Aphis gossypii [4]; [8]): 75%
9 | COCCC1CCC2(CC1)NC(=O)C(c1c(C)cc(C)cc1C)=C2O (stereo not shown) [Example I-1-a-17] | 80 | 50 | 85 | 70 | – | – | – | – | –
10 | COCC1CCC2(CC1)NC(=O)C(c1cc(C)c(Cl)cc1C)=C2O (stereo not shown) [Example I-1-a-18] | – | – | – | – | 0 | 35 | 55 | 0 | –
11 | CCOC(=O)OC1=C(c2c(C)cc(C)cc2C)C(=O)NC12CCC(COC)CC2 (stereo not shown) [Example I-1-c-2] | – | – | – | – | – | – | – | – | Degree of destruction/% after 6 days (Aphis gossypii [4]; [7]): 85%; Degree of destruction/% after 6 days (Aphis gossypii [4]; [15]): 90%; Degree of destruction/% after 6 days (Aphis gossypii [4]; [16]): 99%; Degree of destruction/% after 6 days (Aphis gossypii [4]; [8]): 85%
